Here are results for 53 compounds from patent US20140024662A1, “COMPOUNDS, SCREENS, AND METHODS OF TREATMENT” (Shanghai Institute of Organic Chemistry, priority 2006, published 2014).

In this assay the test system is FADD-deficient Jurkat cells. Description: necroptosis assay: FADD-deficient Jurkat cells treated with TNFα, cell viability. The class given is cell-based, human. Particulars: for EC50: effective concentration for half-maximum response, inhibition of necroptosis in FADD-deficient Jurkat cells treated with TNFα; for Max Prot: max viability obtained in the presence of a compound; for Max Prot / activity in the necroptosis assay, in words: FADD-deficient Jurkat cells treated with TNFα; call rule not given here. An excerpt: Herein we describe the structure activity analysis of Nec-5 analogs.

SMILES strings stand for the structures. Where two headings read alike, the source gives them in different places.

As a reminder, the EC50 is the concentration needed to bring the measured effect to its halfway point. With `CSc1nc2sc(C)c(C)c2c(=O)n1-c1ccc(F)cc1` [Compound 123], the “Max Prot” value is recorded as 69.2%. Further, for the setting “read-out: EC50”, the EC50 was found to be 2.6 µM.
Consider `CCc1sc2nc(SC)n(-c3ccc(F)cc3)c(=O)c2c1C` [Compound 124], for which the EC50 result was “inactive”.
Turning to `CSc1nc2sc3c(c2c(=O)n1-c1ccc(F)cc1)CCC3` [Compound 125], the “Max Prot” value was 95%. The 50% effective concentration (EC50) (read-out: EC50) came to 3 µM.
On to `Cc1sc2nc(SCC#N)n(-c3ccc4c(c3)OCO4)c(=O)c2c1C` [Compound 127], for which the “Max Prot” value is listed as 100%. Moreover, the EC50 (read-out: EC50) was found to be 1.65 µM.
`CCc1c(C)sc2nc(SCC#N)n(-c3ccc4c(c3)OCO4)c(=O)c12` [Compound 128]: the “Max Prot” value is on record as 100%. For the setting “read-out: EC50”, the EC50 came out at 1.9 µM.
In the case of `N#CCSc1nc2sc3c(c2c(=O)n1-c1ccc2c(c1)OCO2)CCC3` [Compound 129], the “Max Prot” value is on record as 100%. Under “read-out: EC50”, the EC50 was 1.18 µM.
With `CSc1nc2sc(C)c(C)c2c(=O)n1-c1ccc2c(c1)OCO2` [Compound 130], the “Max Prot” value amounted to 67.0%. Further, where the note is “read-out: EC50”, the half-maximal effective concentration (EC50) was 1.11 µM.
`CCc1c(C)sc2nc(SC)n(-c3ccc4c(c3)OCO4)c(=O)c12` [Compound 131]: the “activity in the necroptosis assay, in words” value (“activity … in words” for short) was “inactive” and the concentration giving a half-maximal response (EC50) result is “inactive”.
Turning to `CSc1nc2sc3c(c2c(=O)n1-c1ccc2c(c1)OCO2)CCC3` [Compound 132], the “activity … in words” value is “inactive” and the EC50 result was “inactive”.
Turning to `N#CCSc1nc2sc3c(c2c(=O)n1-c1ccc2c(c1)OCCO2)CCC3` [Compound 133], the “Max Prot” value came out at 100%. The EC50 (read-out: EC50) worked out at 0.25 µM.
Regarding `N#CCSc1nc2sc3c(c2c(=O)n1-c1ccc2c(c1)OCCO2)CCCC3` [Compound 134], the “Max Prot” value is 100%. In addition, the EC50 (read-out: EC50) is 0.22 µM.
For the compound `N#CCSc1nc2sc3ccccc3c2c(=O)n1-c1ccc2c(c1)OCCO2` [Compound 135], the “Max Prot” value is given as 100%. Besides, where the note is “R5 ethylene dioxy compared with para-methoxy”, the “increase in activity versus para-methoxy” value is around 2 fold. For the setting “read-out: EC50”, the concentration giving a half-maximal response (EC50) stood at 0.15 µM.
`Cc1sc2nc(SCC#N)n(-c3ccc4c(c3)OCCO4)c(=O)c2c1C` [Compound 136]: the “Max Prot” value is 100%. The EC50 (read-out: EC50) was 0.25 µM.
As to `Cc1ccc(-n2c(SCC#N)nc3sc(C)c(C)c3c2=O)cc1C` [Compound 137], the “activity … in words” value is “showed higher activity than compound (43)” and the “Max Prot” value is 90.7%. Further, the EC50 (read-out: EC50) was 2.79 µM.
In the case of `Cc1ccc(-n2c(SCC#N)nc3sc4c(c3c2=O)CCC4)cc1C` [Compound 139], the “activity … in words” value is “essentially inactive” and the EC50 result is “inactive”.
For `CSc1nc2sc(C)c(C)c2c(=O)n1-c1ccc(C)c(C)c1` [Compound 140], the EC50 result is “inactive”.
As to `CSc1nc2sc3c(c2c(=O)n1-c1ccc(C)c(C)c1)CCC3` [Compound 142], the concentration for a half-maximal effect (EC50) result was “inactive”.
For the compound `N#CCSc1nc2sc3ccccc3c2c(=O)n1-c1ccc(F)cc1` [Compound 144], under “read-out: EC50”, the EC50 was 3.06 µM.
As for `CCOc1ccc(-n2c(SCC#N)nc3sc4ccccc4c3c2=O)cc1` [Compound 145], the EC50 entry was “inactive”.
For `N#CCSc1nc2sc3ccccc3c2c(=O)n1-c1ccc2c(c1)OCO2` [Compound 146], the “activity … in words” value is given as “potent inhibitor” and the “Max Prot” value came out at 100%. Besides, where the note is “read-out: EC50”, the 50% effective concentration (EC50) was determined as 0.27 µM.
With `N#CCSc1nc2sc3ccccc3c2c(=O)n1-c1ccc(OC(F)(F)F)cc1` [Compound 147], the concentration for a half-maximal effect (EC50) result is “inactive”.
With `CN(C)c1ccc(-n2c(SCC#N)nc3sc4ccccc4c3c2=O)cc1` [Compound 148], the EC50 entry is “inactive” and the “Max Prot” value is “inactive”.
Consider `CSc1nc2sc3ccccc3c2c(=O)n1-c1ccc(F)cc1` [Compound 150], for which, for the setting “read-out: EC50”, the EC50 came out at 3.06 µM.
Turning to `CCOc1ccc(-n2c(SC)nc3sc4ccccc4c3c2=O)cc1` [Compound 151], the EC50 entry is “inactive”.
Consider `CSc1nc2sc3ccccc3c2c(=O)n1-c1ccc2c(c1)OCO2` [Compound 152], for which the 50% effective concentration (EC50) entry is “inactive”.
`CSc1nc2sc3ccccc3c2c(=O)n1-c1ccc(OC(F)(F)F)cc1` [Compound 153]: the half-maximal effective concentration (EC50) result is “inactive”.
Consider `CCOc1ccc(-n2c(SCC#N)nc3sc(C)c(C)c3c2=O)cc1` [Compound 154], for which the “Max Prot” value was determined as 97%. Where the note is “read-out: EC50”, the concentration for a half-maximal effect (EC50) turned out to be 7.77 µM.
`Cc1sc2nc(SCC#N)n(-c3ccc(OCc4ccccc4)cc3)c(=O)c2c1C` [Compound 155]: the concentration giving a half-maximal response (EC50) result was “inactive”.
`Cc1sc2nc(SCC#N)n(-c3ccc(OC(F)(F)F)cc3)c(=O)c2c1C` [Compound 156]: the “Max Prot” value is 63%. For the setting “read-out: EC50”, the EC50 was found to be 3.7 µM.
For the compound `Cc1sc2nc(SCC#N)n(-c3ccc(N(C)C)cc3)c(=O)c2c1C` [Compound 157], the half-maximal effective concentration (EC50) entry was “inactive”.
For the compound `CCOc1ccc(-n2c(SC)nc3sc(C)c(C)c3c2=O)cc1` [Compound 158], the 50% effective concentration (EC50) entry is “inactive”.
For the compound `CSc1nc2sc(C)c(C)c2c(=O)n1-c1ccc(OCc2ccccc2)cc1` [Compound 159], the EC50 result was “inactive”.
The same measure, in the same setting: the value for `CSc1nc2sc(C)c(C)c2c(=O)n1-c1ccc(OC(F)(F)F)cc1` [Compound 160] was “inactive”; that for `CSc1nc2sc(C)c(C)c2c(=O)n1-c1ccc(N(C)C)cc1` [Compound 161] was “inactive”; that for `N#CCSc1nc2sccc2c(=O)n1-c1ccccc1` [Compound 162] was “inactive”.
On to `N#CCSc1nc2sc3c(c2c(=O)n1-c1ccccc1)CCC3` [Compound 163], for which the EC50 result was “inactive”.
Regarding `CCOc1ccc(-n2c(SCC#N)nc3sc4c(c3c2=O)CCC4)cc1` [Compound 164], the EC50 entry is “inactive”.
On the same count and under the same terms, the value for `N#CCSc1nc2sc3c(c2c(=O)n1-c1ccccc1)CCCCC3` [Compound 165] was “inactive”; that for `COc1ccc(-n2c(SCC#N)nc3sc4c(c3c2=O)CCC(C)C4)cc1OC` (stereo not shown) [Compound 166] was “inactive”.
`N#CCSc1nc2sc3c(c2c(=O)n1-c1ccc(OC(F)(F)F)cc1)CCC3` [Compound 167]: the “activity … in words” value is “showed some, albeit greatly reduced, activity” and the “Max Prot” value is on record as 70%. Besides, the EC50 (read-out: EC50) is 3.7 µM.
As for `N#CCSc1nc2sc3c(c2c(=O)n1-c1ccc(OC(F)(F)F)cc1)CCCCC3` [Compound 168], the 50% effective concentration (EC50) entry was “inactive”.
Still for that read-out and setting: the same measure for `COc1ccc(-n2c(SCC#N)nc3sc4c(c3c2=O)CCC4)cc1OC` [Compound 169]: “inactive”; for `C=CCSc1nc2sc3c(c2c(=O)n1-c1ccccc1)CCCC3` [Compound 170]: “inactive”; for `O=c1c2c3c(sc2nc(SCc2ccccc2)n1-c1ccccc1)CCCC3` [Compound 171]: “inactive”.
On the same count and under the same terms, the value for `CSc1nc2sccc2c(=O)n1-c1ccccc1` [Compound 173] was “inactive”.
With `COc1ccc(-n2c(SC)nc3sc4c(c3c2=O)CCC(C)C4)cc1OC` (stereo not shown) [Compound 174], the EC50 entry is “inactive”.
Turning to `CCSc1nc2sc3c(c2c(=O)n1-c1ccccc1)CCCCC3` [Compound 175], the EC50 entry is “inactive”.
Consider `C#CCSc1nc2sc(C)c(C)c2c(=O)n1-c1ccc2c(c1)OCO2` [Compound 176], for which the EC50 result is “inactive”.
For `C#CCSc1nc2sc(C)c(CC)c2c(=O)n1-c1ccc2c(c1)OCO2` [Compound 177], the EC50 entry is “inactive”.
Regarding `CCOc1ccc(-n2c(SC)nc3sc4c(c3c2=O)CCC4)cc1` [Compound 178], the half-maximal effective concentration (EC50) entry is “inactive”.
As for `CCc1c(C)sc2nc(SCCO)n(-c3ccc4c(c3)OCO4)c(=O)c12` [Compound 180], the concentration giving a half-maximal response (EC50) entry is “inactive”.
Consider `CCN1CCc2c(sc3nc(SC)n(-c4ccccc4)c(=O)c23)C1` [Compound 181], for which the EC50 result is “inactive”.
For `CSc1nc2sc3c(c2c(=O)n1-c1ccc(OC(F)(F)F)cc1)CCC3` [Compound 182], the EC50 result is “inactive”.
